What was measured:
human mGluR3 = biological target: T1, human mGluR3 (Homo sapiens, UniProt Q14832); test: [3H]LY341495 displacement binding, mGlu3; conditions: displacement of [3H]LY341495; receptors expressed in RGT cells; read-out: Ki (nM) ± SEM mGlu3, effects on [3H]LY341495 binding
T1 construct: expressed in transfected cells; host or cells: RGT cells
Procedure: (§1) To study the ability to affect receptor binding of compounds of the present invention in comparison to compounds of U.S. Pat. No. 5,958,960, displacement of a high affinity mGluR2 antagonist radioligand [^3H]LY341495 from recombinant human mGluR2 and human mGluR3 receptors expressed in RGT cells was determined.

[1] = biological target: T2, recombinant mGlu2 receptors (Homo sapiens, UniProt Q14416); test: forskolin-stimulated cAMP accumulation in cells expressing mGlu2; type: cell-based; conditions: for IC50: antagonist: blocks agonist induced decrease in forskolin-stimulated cAMP, read-out: IC50 (nM) ± SEM mGlu2, forskolin-stimulated cAMP accumulation; for EC50: agonist: reduces cAMP accumulation to 50% of the controls, read-out: EC50 (nM) ± SEM mGlu2, forskolin-stimulated cAMP accumulation
T2 construct: expressed in transfected cells
T2 sequence (Q14416 19-872): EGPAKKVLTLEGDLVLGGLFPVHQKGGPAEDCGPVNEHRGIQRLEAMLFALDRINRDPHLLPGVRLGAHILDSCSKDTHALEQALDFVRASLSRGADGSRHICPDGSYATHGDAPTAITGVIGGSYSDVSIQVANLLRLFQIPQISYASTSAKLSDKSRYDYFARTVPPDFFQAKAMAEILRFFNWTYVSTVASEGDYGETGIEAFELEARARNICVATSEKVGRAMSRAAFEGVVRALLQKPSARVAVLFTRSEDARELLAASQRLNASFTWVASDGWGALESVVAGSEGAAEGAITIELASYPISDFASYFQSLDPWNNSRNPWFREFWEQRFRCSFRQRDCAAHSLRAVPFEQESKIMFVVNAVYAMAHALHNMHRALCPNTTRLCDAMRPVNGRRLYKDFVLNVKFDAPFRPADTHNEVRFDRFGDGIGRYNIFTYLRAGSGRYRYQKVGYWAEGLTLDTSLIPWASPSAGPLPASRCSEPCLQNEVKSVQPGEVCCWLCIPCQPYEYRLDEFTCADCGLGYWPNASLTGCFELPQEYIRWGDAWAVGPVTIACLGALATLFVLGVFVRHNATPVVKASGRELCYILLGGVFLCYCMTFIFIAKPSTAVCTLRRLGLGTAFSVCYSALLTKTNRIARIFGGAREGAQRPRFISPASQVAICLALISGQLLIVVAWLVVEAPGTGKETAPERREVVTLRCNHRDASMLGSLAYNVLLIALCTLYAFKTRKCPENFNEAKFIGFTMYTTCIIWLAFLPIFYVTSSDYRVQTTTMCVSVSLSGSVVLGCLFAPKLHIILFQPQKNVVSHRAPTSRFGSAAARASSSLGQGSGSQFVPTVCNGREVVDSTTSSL
Procedure: (§2) To study the functional effect of compounds of the present invention in comparison to compounds of U.S. Pat. No. 5,958,960, forskolin stimulated c-AMP production in cells expressing recombinant mGlu2 and mGlu3 receptors was determined. As mGlu2 and mGlu3 receptors are negatively coupled to adenyl cyclase, activity of an agonist decreases forskolin-stimulated accumulation of cyclic adenosine monophosphate (cAMP) and is reported as the concentration necessary to reduce C-AMP accumulation to 50% of the controls (EC50, nM). The activity of an anatgonist blocks the agonist induced decrease in forskolin-stimulated accumulation of cyclic adenosine monophosphate (cAMP) and is reported as the concentration necessary to inhibit the reduction of C-AMP accumulation to 50% of the controls (IC50, nM).

recombinant human mGluR2 = biological target: T3, recombinant human mGluR2 (Homo sapiens, UniProt Q14416); test: [3H]LY341495 displacement binding, mGlu2; conditions: displacement of [3H]LY341495; receptors expressed in RGT cells; read-out: Ki (nM) ± SEM mGlu2, effects on [3H]LY341495 binding
T3 construct: expressed in transfected cells; host or cells: RGT cells
T3 sequence (Q14416 19-872): as above
Procedure: as §1

[2] = biological target: T4, recombinant mGlu3 receptors (Homo sapiens, UniProt Q14832); test: forskolin-stimulated cAMP accumulation in cells expressing mGlu3; type: cell-based; conditions: for IC50: antagonist: blocks agonist induced decrease in forskolin-stimulated cAMP, read-out: IC50 (nM) ± SEM mGlu3, forskolin-stimulated cAMP accumulation; for EC50: agonist: reduces cAMP accumulation to 50% of the controls, read-out: EC50 (nM) ± SEM mGlu3, forskolin-stimulated cAMP accumulation
T4 construct: expressed in transfected cells
T4 sequence (Q14832 23-879): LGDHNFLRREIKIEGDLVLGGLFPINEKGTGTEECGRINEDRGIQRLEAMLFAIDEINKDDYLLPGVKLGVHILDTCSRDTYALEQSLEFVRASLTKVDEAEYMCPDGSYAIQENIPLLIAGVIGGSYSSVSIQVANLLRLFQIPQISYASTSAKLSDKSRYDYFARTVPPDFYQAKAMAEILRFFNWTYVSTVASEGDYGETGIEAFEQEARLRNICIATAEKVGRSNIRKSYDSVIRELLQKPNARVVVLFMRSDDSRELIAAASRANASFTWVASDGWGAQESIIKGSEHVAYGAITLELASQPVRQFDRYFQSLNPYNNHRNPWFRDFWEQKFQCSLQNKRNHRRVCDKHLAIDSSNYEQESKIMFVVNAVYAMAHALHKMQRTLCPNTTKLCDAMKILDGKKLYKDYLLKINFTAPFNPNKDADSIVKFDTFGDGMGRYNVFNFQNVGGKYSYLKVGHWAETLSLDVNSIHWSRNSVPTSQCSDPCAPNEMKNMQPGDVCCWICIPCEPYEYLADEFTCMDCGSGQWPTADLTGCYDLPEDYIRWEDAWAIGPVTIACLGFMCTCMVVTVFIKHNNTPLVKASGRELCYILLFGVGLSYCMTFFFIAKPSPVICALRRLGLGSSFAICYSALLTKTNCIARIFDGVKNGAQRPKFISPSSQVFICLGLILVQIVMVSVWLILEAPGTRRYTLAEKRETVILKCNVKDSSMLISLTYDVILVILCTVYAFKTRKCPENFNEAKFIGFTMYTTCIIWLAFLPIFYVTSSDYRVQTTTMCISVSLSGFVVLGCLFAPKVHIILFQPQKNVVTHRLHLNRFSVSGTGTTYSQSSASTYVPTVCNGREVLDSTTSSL
Procedure: as §2

T1 sequence (Q14832 23-879): as above

Row | SMILES | Ki (human mGluR3) [nM] | IC50 [1] [nM] | Ki (recombinant human mGluR2) [nM] | IC50 [2] [nM] | EC50 [1] [nM] | EC50 [2] [nM]
1 | N[C@@]1(C(=O)O)C[C@@H](NC(=O)c2ccccc2)[C@H]2[C@H](C(=O)O)[C@H]21 (relative stereo) [1S*, 2S*, 4R*, 5R*, 6S*) 2-Amino-4-benzoylaminobicyclo[3.1.0]hexane-2,6-dicarboxylic acid] | 393 ± 17.8 | 4060 | 607 ± 10.2 | 9520 |  | 
2 | CNC(=O)N[C@@H]1C[C@@](N)(C(=O)O)[C@@H]2[C@@H](C(=O)O)[C@@H]21 (relative stereo) [(1S*, 2S*, 4R*, 5R*, 6S*) 2-Amino-4-(3-methylureido)bicyclo[3.1.0]hexane-2,6-dicarboxylic acid] | 408 ± 25.4 | 3220 | 468 ± 29 | 6270 |  | 
3 | CC(=O)N[C@@H]1C[C@@](N)(C(=O)O)[C@@H]2[C@@H](C(=O)O)[C@@H]21 (relative stereo) [(1S*, 2S*, 4R*, 5R*, 6S*) 4-Acetylamino-2-aminobicyclo[3.1.0]hexane-2,6-dicarboxylic acid] | 399 ± 67.8 | 4300 | 638 ± 59.6 | 11100 |  | 
4 | CNC(=O)N[C@H]1C[C@@](N)(C(=O)O)[C@@H]2[C@@H](C(=O)O)[C@@H]21 (relative stereo) [Example 20, (1S*, 2S*, 4S*, 5R*, 6S*) 2-Amino-4-(3-methyl-ureido)-bicyclo[3.1.0]hexane-2,6-dicarboxylic acid] | 23 ± 2.6 |  | 254 ± 10.7 |  | 426 ± 41.8 | 41.1 ± 11.1
5 | CC(=O)N[C@H]1C[C@@](N)(C(=O)O)[C@@H]2[C@@H](C(=O)O)[C@@H]21 (relative stereo) [Example 23, (1S*, 2S*, 4S*, 5R*, 6S*) 4-Acetylamino-2-amino-bicyclo[3.1.0]hexane-2,6-dicarboxylic acid] | 214 ± 14.6 |  | 772 ± 38.8 |  | 1350 | 1730
6 | N[C@@]1(C(=O)O)C[C@H](NC(=O)c2ccccc2)[C@H]2[C@H](C(=O)O)[C@H]21 (relative stereo) [Example 24, (1S*, 2S*, 4S*, 5R*, 6S*) 2-Amino-4-benzoylamino-bicyclo[3.1.0]hexane-2,6-dicarboxylic acid] | 9.54 ± 0.73 |  | 511 ± 89 |  | 60.7 ± 1.03 | 18.1 ± 2.87

— patent publication US20040116489A1, “Synthetic excitatory amino acids” (priority 2003, published 2004)
